Measured values as given in ChEMBL document CHEMBL3352364 (Bioorg Med Chem Lett, 2014).

Tests used:
Rattus norvegicus [1] = species: Rattus norvegicus; details: in vivo, ip
Description: Toxicity in ip dosed Sprague-Dawley rat assessed as catalepsy by Bar test

Rattus norvegicus [2] = species: Rattus norvegicus; details: in vivo, ip; remark: listed apart in the source
Description: Toxicity in ip dosed Sprague-Dawley rat assessed as catalepsy by crossed-legs position test

Row | SMILES | MED (Rattus norvegicus [1]) | MED (Rattus norvegicus [2])
1 | OC1(c2ccc(Cl)cc2)CC2CCC(C1)N2CCCSc1cccc(F)c1 (centres undefined) | 12.7 mg/kg | 12.7 mg/kg
2 | OC1(c2ccc(Cl)cc2)CC2CCC(C1)N2CCCSc1ccc(F)cc1 (centres undefined) | 0.578 mg/kg | 0.964 mg/kg
